Measured values from ChEMBL document CHEMBL2073808, “P-glycoprotein inhibition by the multidrug resistance-reversing agent MS-209 enhances bioavailability and antitumor efficacy of orally administered paclitaxel” (Cancer Chemother Pharmacol, 2002).

Target: ATP-dependent translocase ABCB1 (Homo sapiens, UniProt P08183)
Assay: TP_TRANSPORTER: inhibition of Taxol transepithelial transport (basal to apical) in Caco-2 cells
Type: functional, cell-based

Chain of ATP-dependent translocase ABCB1 (P08183 whole entry): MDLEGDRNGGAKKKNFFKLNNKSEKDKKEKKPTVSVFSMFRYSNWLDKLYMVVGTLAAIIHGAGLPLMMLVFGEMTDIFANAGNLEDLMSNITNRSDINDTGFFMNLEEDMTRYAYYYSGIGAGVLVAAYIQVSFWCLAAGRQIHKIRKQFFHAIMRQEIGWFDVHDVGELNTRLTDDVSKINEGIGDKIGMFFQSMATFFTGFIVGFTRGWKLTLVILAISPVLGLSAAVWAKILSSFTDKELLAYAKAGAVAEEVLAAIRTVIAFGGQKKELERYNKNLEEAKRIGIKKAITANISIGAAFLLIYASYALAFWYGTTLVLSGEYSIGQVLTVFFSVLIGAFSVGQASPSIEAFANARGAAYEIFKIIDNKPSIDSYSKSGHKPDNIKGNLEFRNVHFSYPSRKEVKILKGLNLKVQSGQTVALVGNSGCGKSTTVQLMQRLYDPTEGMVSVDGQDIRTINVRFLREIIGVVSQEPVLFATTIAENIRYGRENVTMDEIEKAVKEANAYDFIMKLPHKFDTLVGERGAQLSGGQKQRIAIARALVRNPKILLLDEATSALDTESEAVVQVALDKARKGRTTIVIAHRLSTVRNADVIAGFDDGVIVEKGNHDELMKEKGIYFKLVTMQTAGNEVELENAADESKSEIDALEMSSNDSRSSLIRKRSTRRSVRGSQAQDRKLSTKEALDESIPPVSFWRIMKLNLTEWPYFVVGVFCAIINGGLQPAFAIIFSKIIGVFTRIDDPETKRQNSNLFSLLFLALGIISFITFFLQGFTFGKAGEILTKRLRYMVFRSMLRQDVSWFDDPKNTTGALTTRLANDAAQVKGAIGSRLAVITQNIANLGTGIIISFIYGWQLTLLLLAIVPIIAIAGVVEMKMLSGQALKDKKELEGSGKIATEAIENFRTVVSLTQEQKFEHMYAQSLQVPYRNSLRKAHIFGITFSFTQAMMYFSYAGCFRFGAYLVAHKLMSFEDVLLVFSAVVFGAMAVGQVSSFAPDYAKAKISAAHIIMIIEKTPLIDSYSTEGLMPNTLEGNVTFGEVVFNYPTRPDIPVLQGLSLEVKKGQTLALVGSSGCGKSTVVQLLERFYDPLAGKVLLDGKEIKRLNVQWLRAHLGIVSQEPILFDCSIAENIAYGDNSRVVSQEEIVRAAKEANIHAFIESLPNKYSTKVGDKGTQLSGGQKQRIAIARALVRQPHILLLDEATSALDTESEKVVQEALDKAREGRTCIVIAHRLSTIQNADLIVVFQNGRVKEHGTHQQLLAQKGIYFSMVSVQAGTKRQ

Ki: 400 nM
SMILES: O=C(C(c1ccccc1)c1ccccc1)N1CCN(C[C@@H](O)COc2cccc3ncccc23)CC1
